Data taken from patent US20120118175A1, “TREATMENT TO REDUCE MICROORGANISMS WITH CARBON DIOXIDE BY MULTIPLE PRESSURE OSCILLATIONS” (SAFEFRESH TECHNOLOGIES, LLC, priority 2004, published 2012).
“And” between values parts separate entries of the source, which are not always exact repeats. Equal values may be shown once.

How the values were obtained:
[1] = test system: Meat Normal Flora; assay: Un-inoculated meat exposed to CO2 in a supercritical fluid extractor, bacterial plate count; type: cell-based; conditions: for CFU/g / Logs: control 7.53 logs, listed as CO2
Experimental: (§1) Each meat sample was placed into a sterile bag and weighed, a known volume of sterile buffer was added as a diluent and the meat sample homogenized in a ‘Stomacher’. This suspension was then further diluted as 1:10 dilutions and duplicate 1 ml samples were plated onto the surface of agar media formulated for the enumeration of E. coli 0157. The bacterial levels were recorded as colony forming units CFU per g. or as log 10 of that number.
The above experiments used the most exacting conditions available given the reactor equipment. The survival of natural microflora of meat when treated with carbon dioxide in the super critical range was also investigated.
In the Dairy Science chemistry research lab in Call Hall (KSU), equipment is available to achieve temperatures and pressures above the critical point of carbon dioxide (a Pepmaster GA made by the Suprex Corp.). This device is mainly used for lipid extraction from natural materials prior to further analysis.
The tests were undertaken to determine the efficacy of supercritical carbon dioxide using laboratory equipment shown schematically in FIGS. 8 and 9.
The sample cells 2 in parallel hold about 4 gr of sample which is sufficient to do microbial analysis and the equipment could control pressure up to about 7500 psig, temperature (above ambient), and time. Introduction of E. coli 0157 meat into the lab was not possible. […]

[2] = test system: E. coli 0157; assay: Inoculated meat cubes treated with carbon dioxide in high pressure reactor, E. coli 0157 plate count; type: cell-based
Experimental: To carry out the experiments, a high pressure reactor was designed to the following specifications. • A vessel built to withstand about 3000 psig with top and bottom vents for the addition/venting of carbon dioxide gas as required. • An analog pressure gauge. • A digital temperature recorder on the top vent from the vessel. • A pH probe that could be raised/lowered into the center of the reactor top. • A supply of liquid carbon dioxide at about 300 psi and −20° C. • A supply of gaseous carbon dioxide heated to about 56° C. in a hot water bath. • A supplementary probe to measure the temperature of the reactor barrel surface. • Lap top computer to record temperature data.
FIG. 8 is a schematic illustration of laboratory equipment 800 used in carrying out various tests of the treatment of meat with carbon dioxide. The apparatus 800 includes pressure cylinders 804, 806, and 808 with high-pressure piping 824, pressure release safety valve 828 and on/off valves 812, 814, 816, 818, 820, and 822. Meat samples, having been inoculated, are suspended from a centrally located shaft within the cylinder 804 and the upper member 802 is bolted to the cylinder 804 in a manner that substantially ensures a leak-proof and pressure tight seal. A stream of fluid carbon dioxide 824 that progressively turns to liquid is transferred into the cylinder 804 until the suspended meat samples therein are immersed in the liquid carbon dioxide. After a recorded and selected period of time, the liquid carbon dioxide is removed from the cylinder 804 and the pressure therein reduced to ambient atmospheric pressure. The samples can then be removed from the cylinder and the reduction of bacteria population determined. The items 806 and 808 are commonly referred to as an intensifier. Opening valve 812 allows filling the cylinder 806 with low pressure fluid carbon dioxide, and then, after isolation of the lower pressure source of the fluid carbon dioxide, a piston in cylinder 808 is activated by hydraulic oil from line 826 (or high-pressure air or gas) and a smaller diameter piston in cylinder 806 compresses the fluid carbon dioxide and elevates the pressure. The higher pressure carbon dioxide fluid in line 824 is then transferred to cylinder 804 via a selected path through high-pressure piping 824 as shown.
Cell cultures were grown overnight in a nutrient broth. The cells were separated by centrifugation and washed in a sterile buffer. The E. coli cell suspension was then diluted to give log 7-9 cell per ml.
Meat was purchased at a local retail store. The meat was aseptically cut into 1 inch cubes and suspended by attachment to sterile fish hooks. Meat samples were then placed into an inoculation chamber where they were sprayed with about 10 mls of the cell inoculum. This was done ensuring that all 6 sides of each piece of meat received the same exposure to the E. coli. The samples were then allowed to stand for about 30 minutes at room temperature to achieve the attachment of the E. coli to the meat. One of these meat samples was immediately taken and analyzed for E. coli (as a control). The remaining inoculated samples were then placed into the reactor and the experiment started.
One (1) inch meat cube samples were suspended from the pH probe using small fishing hooks and line so that the cubes were suspended in the bottom third of the reactor and were neither touching each other nor the walls of the vessel.
as §1
The methodology was as stated above. The reactor contained inoculated meat. […]

[3] = Experiment 4: 1470 psi @ 29° C., 5 min
[4] = Experiment 4: 3000 psi @ 29° C., 5 min
[5] = Experiment 1: 300-1000 psi, 10 min
[6] = Experiment 3: 1000 psi @ 13° C. held 4 hours, analyzed immediately, control 7.87 logs, listed as Liquid CO2

## O=C=O [carbon dioxide]
[1]; Experiment 4: 1470 psi @ 29° C. (line 21B)
  log bacteria reduction versus control: ~1 log
[1]; [3]
  CFU/g: 5,233,644.9 CFU/g and 9,523,809.5 CFU/g
  Logs: 6.72 Logs and 6.98 Logs
[1]; Experiment 4: 3000 psi @ 29° C. (lines 22C and 23D)
  log bacteria reduction versus control: ~1 log
[1]; [4]
  CFU/g: 9,029,345.4 CFU/g and 5,154,639.2 CFU/g
  Logs: 6.96 Logs and 6.71 Logs
[1]; Experiment 5: 3000 psi, 36° C., 5 min (mean of replicates)
  log bacteria after the test: 5.53 log
[1]; Experiment 5: supercritical, 3000 psi, 36° C., 5 min
  log reduction versus control: ~2 log and 1.83 log
[2]; [5]
  average of the 3 test samples: 7.22 log
  log reduction versus control: 0.47 log
[2]; Experiment 2: -17° C. at 300 psig, then 1000 psig 5 min
  average of the test samples: 6.5 log
[2]; Experiment 2: -17° C. at 300 psig, then 1000 psig 5 min, meat frozen, listed as Liquid CO2
  log reduction versus control: ~1 log and 1.27 log
[2]; [6]
  CFU/g: 8,741,258.7 CFU/g and 14,344,362.3 CFU/g and 8,467,741.9 CFU/g
  Logs: 6.94 Logs and 7.16 Logs and 6.93 Logs
[2]; Experiment 3: 1000 psig 4 hours, analyzed immediately
  log reduction versus control: ~1 log and 0.86 log
[2]; Experiment 3: storage in about 100% carbon dioxide at about 4° C. for 4 days after treatment
  further log kill by storage: 2.83 log
[2]; liquid carbon dioxide in the sub critical range alone
  destruction of E. coli 0157 on meat surfaces: no practical significance
[2]; liquid carbon dioxide, experiment not specified
  log kill with liquid carbon dioxide: ~0.5 log
